Laboratory results reported in patent US10172796B2, “Use of umirolimus and its derivatives for treating cancer” (Manli International Ltd., priority 2012, dated 2019).

Columns and labels:
SNU-16/gastric = test: CellTiter-Glo luminescent cell viability assay, SNU-16; type: cell-based, human; settings: 72 hours of in vitro culture
Method: (§1) Umirolimus was added to cultured cell lines derived from 9 types of human cancer. After 72 hours of in vitro culture, the 50% inhibitory concentration (IC50) of umirolimus on cell growth was measured using the CellTiter-Glo luminescent cell viability assay.

BxPC-3/pancreatic = test: CellTiter-Glo luminescent cell viability assay, BxPC-3; type: cell-based, human; settings: 72 hours of in vitro culture
Method: as §1

AZ-521/gastric = test: CellTiter-Glo luminescent cell viability assay, AZ-521; type: cell-based, human; settings: 72 hours of in vitro culture
Method: as §1

[1] = system: RPMI-8226/multiple myeloma; test: CellTiter-Glo luminescent cell viability assay, RPMI-8226; type: cell-based, human; settings: 72 hours of in vitro culture
Method: as §1

NCI-H460/lung = test: CellTiter-Glo luminescent cell viability assay, NCI-H460; type: cell-based, human; settings: 72 hours of in vitro culture
Method: as §1

A2780/ovarian = test: CellTiter-Glo luminescent cell viability assay, A2780; type: cell-based, human; settings: 72 hours of in vitro culture
Method: as §1

SK-HEP-1/liver = test: CellTiter-Glo luminescent cell viability assay, SK-HEP-1; type: cell-based, human; settings: 72 hours of in vitro culture
Method: as §1

[2] = system: K562/chronic myelogenous leukemia; test: CellTiter-Glo luminescent cell viability assay, K562; type: cell-based, human; settings: 72 hours of in vitro culture
Method: as §1

SK-MES-1/lung = test: CellTiter-Glo luminescent cell viability assay, SK-MES-1; type: cell-based, human; settings: 72 hours of in vitro culture
Method: as §1

SW620/colorectal = test: CellTiter-Glo luminescent cell viability assay, SW620; type: cell-based, human; settings: 72 hours of in vitro culture
Method: as §1

MDA-MB-231/breast = test: CellTiter-Glo luminescent cell viability assay, MDA-MB-231; type: cell-based, human; settings: 72 hours of in vitro culture
Method: as §1

[3] = system: 11 cell lines from 9 types of human cancers; test: CellTiter-Glo cell viability assay, summary over the cell line panel; type: cell-based; settings: summary for all 11 cell lines of Table 1
Method: as §1

[4] = system: 10 human cancer cell lines; test: Inhibition of cancer cell growth by umirolimus as compared to sirolimus and everolimus; type: cell-based; settings: 8 out of the 10 cancer cell lines tested: A2780, SK-HEP-1, DLD-1, SNU-16, BxPC-3, 786-O, SK-MES-1, AZ-521; FIG. 1
Method: as §1
The IC50 for 3 “limus” drugs for inhibiting the growth of 10 human cancer cell is lines was measured using the CellTiter-Glo luminescent cell viability assay as described in Example 1. The ten exemplary human cancer cell lines tested were SK-MES-1 (lung cancer), BxPC-3 (pancreatic cancer), AZ-521 (gastric cancer), SNU-16 (gastric cancer), SK-HEP-1 (liver cancer), A2780 (ovarian cancer), MDA-MB-231 (breast cancer), DLD-1 (colorectal cancer), DU-145 (prostate cancer) and 786-O (kidney cancer).

[5] = See J. Med. Chem. 2000, 43:2922-2928; cited from earlier work

IC50 (SNU-16/gastric): 1.14 µM
IC50 (BxPC-3/pancreatic): 3.07 µM
IC50 [1]: 6.8 µM
IC50 (NCI-H460/lung): 7.07 µM
IC50 (A2780/ovarian): 7.31 µM
IC50 (SK-HEP-1/liver): 7.81 µM
IC50 [2]: 7.97 µM
IC50 (SK-MES-1/lung): 8.24 µM
IC50 (SW620/colorectal): 8.33 µM
IC50 (MDA-MB-231/breast): 9.52 µM
IC50 [3]: < 10 µM
Compound: CCOCCO[C@@H]1CC[C@@H](C[C@@H](C)[C@@H]2CC(=O)[C@H](C)/C=C(\C)[C@@H](O)[C@@H](OC)C(=O)[C@H](C)C[C@H](C)/C=C/C=C/C=C(\C)[C@@H](OC)C[C@@H]3CC[C@@H](C)[C@@](O)(O3)C(=O)C(=O)N3CCCC[C@H]3C(=O)O2)C[C@H]1OC [umirolimus]
Maximum inhibition (SNU-16/gastric): 99.75%
Maximum inhibition (BxPC-3/pancreatic): 77.24%
IC50 (AZ-521/gastric): 4.23 µM
Maximum inhibition (AZ-521/gastric): 99.88%
Maximum inhibition [1]: 99.26%
Maximum inhibition (NCI-H460/lung): 88.99%
Maximum inhibition (A2780/ovarian): 100.19%
Maximum inhibition (SK-HEP-1/liver): 99.97%
Maximum inhibition [2]: 98.49%
Maximum inhibition (SK-MES-1/lung): 96.57%
Maximum inhibition (SW620/colorectal): 55.69%
Maximum inhibition (MDA-MB-231/breast): 99.23%
IC50 compared to sirolimus and everolimus [4]: superior to that of sirolimus and everolimus
lipophilicity as compared to sirolimus and everolimus [5]: 10 times
